The values that follow come from publication PMC10413460 (ACS Omega, 2023).

For the assay, the target named is epidermal growth factor receptor tyrosine kinase (EGFR-TK) (Homo sapiens, UniProt P00533). Nature of the assay: ADP-Glo kinase assay, cell-free. Format: biochemical. A general note: ADP-Glo turns the ADP formed in a reaction into a luminescent signal.

One may read the IC50 as the point on the concentration scale where inhibition reaches its midpoint.

epidermal growth factor receptor tyrosine kinase (EGFR-TK), sequence (P00533 669-1210 limits assumed): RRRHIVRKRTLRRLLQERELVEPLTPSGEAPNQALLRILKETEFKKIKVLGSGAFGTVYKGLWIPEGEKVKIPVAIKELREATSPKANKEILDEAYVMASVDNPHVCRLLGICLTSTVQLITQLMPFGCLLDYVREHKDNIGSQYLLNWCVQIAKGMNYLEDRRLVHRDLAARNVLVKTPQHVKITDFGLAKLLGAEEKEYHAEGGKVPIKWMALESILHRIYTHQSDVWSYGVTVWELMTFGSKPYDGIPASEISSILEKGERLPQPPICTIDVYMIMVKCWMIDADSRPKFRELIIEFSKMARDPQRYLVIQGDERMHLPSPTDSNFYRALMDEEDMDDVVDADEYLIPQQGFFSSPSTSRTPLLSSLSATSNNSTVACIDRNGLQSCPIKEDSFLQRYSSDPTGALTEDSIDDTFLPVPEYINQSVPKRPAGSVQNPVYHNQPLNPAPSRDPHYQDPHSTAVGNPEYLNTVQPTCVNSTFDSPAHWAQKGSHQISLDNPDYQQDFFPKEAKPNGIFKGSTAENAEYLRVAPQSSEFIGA

Compound `COC(=O)[C@@]12OC[C@]34[C@H]([C@@H](O)[C@@H]1O)[C@@]1(C)CC(=O)C(O)=C(C)[C@@H]1C[C@H]3OC(=O)[C@H](OC(=O)C=C(C)C)[C@@H]24` [brusatol] showed an IC50 of 333 nM.
